Measured values published in publication PMC8307831, “Preparation of Monoclonal Antibody and Development of Indirect Competitive Enzyme-Linked Immunosorbent Assay and Fluorescence-Linked Immunosorbent Assay for Detecting 3-Amino-5-methylmorpholino-2-oxazolidinone (AMOZ) in Edible Animal Tissue” (Molecules, 2021).
Values after ≈ are worked out from the molar mass of the structure shown.

Key:
mAb 5C10/3A8 [1] = assay: indirect competitive ELISA (ic-ELISA) with CPAMOZ-OVA coating antigen; assay type: binding, mouse; settings: for Cross-Reactivity: (IC50 of 2-NP-AMOZ / IC50 of compound tested) x 100%, 2-NP-AMOZ set to 100%; for IC50: mAb 5C10/3A8, competition with coating antigen CPAMOZ-OVA
Procedure: To carry out 2-NP-AMOZ ic-ELISA, 96-well plates were first coated with 100 μL of CPAMOZ-OVA in 50 mM of carbonate buffer solution (pH = 9.6) overnight at 4 °C. […] The plates were washed again three times, after which 50 μL of different concentrations of 2-NP-AMOZ analytes and 50 μL of the obtained mAb were added into each well, incubated at 37 °C for 1 h, and the plates were washed three times with the PBST. Subsequently, 100 μL of horseradish peroxidase-labeled goat anti-mouse IgG (1:10,000 dilution) was added to the wells and incubated at 37 °C for 1 h. This was followed by a washing step of three washes with PBST solution, after which 100 μL of substrate solution was added to each well and incubated for 15 min in darkness. The reaction was stopped by adding 50 μL/well of 2 M of H2SO4. The absorbance at 450 nm was measured on a Tecan Sunrise 2.5 microplate reader (SUNRISE, Austria). A calibration curve was constructed by plotting (B/B0) × 100% vs. log C, where B and B0 represent the absorbance of the analyte at the known concentrates (standards) and at zero concentration of the analyte, respectively.
The extent of cross-reactivity was evaluated by determining IC50 values using an ic-ELISA as described above. […] The concentration of the standard solutions of the compounds was set from 0.01 to 1000 ng/mL.

monoclonal antibodies = tested on: monoclonal antibodies; parameters: method as in not given; settings: published mAb-based homologous ic-ELISAs and fluoroimmunoassay; range over the literature; ref not given; cited from earlier work
mAb 5C10/3A8 [2] = assay: QD-based fluorescence-linked immunosorbent assay (FLISA); assay type: binding; settings: 655 nm QDs-conjugated goat anti-mouse IgG
Procedure: The procedures for FLISA and ic-ELISA were identical before the secondary antibody was added. More specifically, after washing with PBST for three times, 100 μL of 655 nm QDs-conjugated goat anti-mouse IgG (1:10,000 dilution) was added to each well and incubated at 37 °C for 45 min. After three washes with PBST, a SpectraMax M2e Microplate Reader (Molecular Devices, San Jose, CA, USA) was used to measure the fluorescence signals from samples with excitation/emission at 360/655 nm. The fluorescence intensities were identified as B0 and B for the control and testing sample. The standard curve was established by plotting the form (B/B0) 100% against the 2-NP-AMOZ concentration.

SMILES | IC50 (mAb 5C10/3A8 [1]) [µg/mL] | IC50 (mAb 5C10/3A8 [2]) [ng/mL] | Cross-Reactivity (mAb 5C10/3A8 [1]) [%] | IC50 (monoclonal antibodies) [µg/mL]
NN1CC(CN2CCOCC2)OC1=O (centres unmarked) [AMOZ, 3-amino-5-morpholinomethyl-2-oxazolidinone] | 0.00103 (≈ 0.00512 µM) | – | 10.7 | 0.00115 to 0.00533
NC(=O)N/N=C/c1ccc([N+](=O)[O-])o1 [Nitrofurazone, nitrofurazone] | >1 | – | <0.01 | –
NNC(N)=O [SEM, semicarbazide] | >1 | – | <0.01 | –
O=C(O)c1ccc(/C=N/N2CC(CN3CCOCC3)OC2=O)cc1 (centres unmarked) [CPAMOZ, carboxyphenyl AMOZ] | 9e-05 (≈ 0.00027 µM) | – | 122.2 | –
O=Cc1ccc(C(=O)O)cc1 [4-CBA, 4-carboxybenzaldehyle] | >1 | – | <0.01 | –
NN1CCOC1=O [AOZ, 3-amino-2-oxazolidinone] | >1 | – | <0.01 | –

Continued, in another order:

IC50 (mAb 5C10/3A8 [1]) [µg/mL] | IC50 (mAb 5C10/3A8 [2]) [ng/mL] | SMILES | Cross-Reactivity (mAb 5C10/3A8 [1]) [%] | IC50 (monoclonal antibodies) [µg/mL]
>1 | – | O=C1CN(/N=C/c2ccc([N+](=O)[O-])o2)C(=O)N1 [Nitrofurantoin, nitrofurantoin] | <0.01 | –
>1 | – | O=C1OCCN1/N=C/c1ccccc1[N+](=O)[O-] [2-NP-AOZ] | <0.01 | –
0.00124 (≈ 0.00382 µM) | – | O=C1OC(CN2CCOCC2)CN1/N=C/c1ccc([N+](=O)[O-])o1 (centres unmarked) [Furaltadone, furaltadone] | 8.9 | –
>1 | – | NN1CC(=O)NC1=O [AHD, 1-aminohydantoin] | <0.01 | –
>1 | – | O=C1CN(/N=C/c2ccccc2[N+](=O)[O-])C(=O)N1 [2-NP-AHD] | <0.01 | –
0.00011 (≈ 0.000329 µM) | 0.09 (≈ 0.000269 µM) | O=C1OC(CN2CCOCC2)CN1/N=C/c1ccccc1[N+](=O)[O-] (centres unmarked) [2-NP-AMOZ] | 100 | 0.00014 to 0.0043
>1 | – | O=Cc1ccccc1[N+](=O)[O-] [2-NBA, 2-nitrobenzaldehyde] | <0.01 | –
